From patent US6914045B2, “Glycopeptide antibiotics” (Wyeth Holdings Corporation, priority 2001, dated 2005)
Values after ≈ are worked out from the molar mass of the structure shown. Values belong to the compound of their own block, whether it stands above or below them.

Experiments:
Assay in all cases: in vitro antibacterial evaluation, MIC by broth dilution
Type in all cases: cell-based
Enterococcus sp. = conditions: broth dilution, 18 hours at 35° C.
Procedure, shortened: (§1)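 Read-out: the lowest concentration at which the test strain fails to grow. Serial dilutions (64-0.06 μg/mL) in Muller-Hinton II […], 5×10^5 CFU/mL inoculum, NCCLS M7-A2 procedure.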

Staphylococcus sp. = tested on: Staphylococcus sp.
Procedure, shortened: as §1

Escherichia coli [1] = conditions: 18 hours at 35° C.
Procedure, shortened: as §1

Escherichia coli [2] = conditions: 18 hours at 35° C.; remark: listed apart in the source
Procedure, shortened: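 Broth dilution MIC per NCCLS M7-A2 in Mueller-Hinton II medium, inoculum 5×10^5 CFU/mL, antibiotic range 64-0.06 μg/mL. MIC taken as lowest concentration inhibiting growth.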

Streptococcus sp. = conditions: broth dilution, 18 hours at 35° C.
Procedure, shortened: as §1

[3] = Enterococcus faecalis (ATCC 29212)
[4] = Enterococcus faecalis (GC 4552)
[5] = broth dilution, 18 hours at 35° C.
[6] = strain ATCC 29213; broth dilution, 18 hours at 35° C.
[7] = strain GC 1131; broth dilution, 18 hours at 35° C.

MIC Enterococcus faecalis (ATCC 29212) (Enterococcus sp.; [3]): 4 µg/mL (≈ 2.82 µM)
MIC Enterococcus faecalis (GC 2242) (Enterococcus sp.; Enterococcus faecalis (GC 2242)): 2 µg/mL (≈ 1.41 µM)
MIC Enterococcus faecalis (GC 4552) (Enterococcus sp.; [4]): 4 µg/mL (≈ 2.82 µM)
MIC Enterococcus faecalis (ATCC 29212) (Enterococcus sp.; strain ATCC 29212): 4 µg/mL (≈ 2.82 µM)
MIC Enterococcus faecalis (GC 2242) (Enterococcus sp.; strain GC 2242): 2 µg/mL (≈ 1.41 µM)
MIC Enterococcus faecalis (GC 4552) (Enterococcus sp.; strain GC 4552): 4 µg/mL (≈ 2.82 µM)
MIC Coagulase Negative Staphylococcus (GC 4537) (Staphylococcus sp.; [5]): 1 µg/mL (≈ 0.704 µM)
MIC Coagulase Negative Staphylococcus (GC 4538) (Staphylococcus sp.; [5]): 1 µg/mL (≈ 0.704 µM)
MIC Coagulase Negative Staphylococcus (GC 4547) (Staphylococcus sp.; [5]): 1 µg/mL (≈ 0.704 µM)
MIC Staphylococcus aureus (ATCC 29213) (Staphylococcus sp.; [5]): 1 µg/mL (≈ 0.704 µM)
MIC Staphylococcus aureus (GC 1131) (Staphylococcus sp.; [5]): 1 µg/mL (≈ 0.704 µM)
MIC Staphylococcus aureus (GC 4535) (Staphylococcus sp.; [5]): 1 µg/mL (≈ 0.704 µM)
MIC Staphylococcus aureus-SMITH (GC 4536) (Staphylococcus sp.; [5]): 1 µg/mL (≈ 0.704 µM)
MIC Coagulase Negative Staphylococcus (GC 4537) (Staphylococcus sp.; broth dilution, 18 hours at 35° C.; strain GC 4537): 1 µg/mL (≈ 0.704 µM)
MIC Coagulase Negative Staphylococcus (GC 4538) (Staphylococcus sp.; broth dilution, 18 hours at 35° C.; strain GC 4538): 1 µg/mL (≈ 0.704 µM)
MIC Coagulase Negative Staphylococcus (GC 4547) (Staphylococcus sp.; broth dilution, 18 hours at 35° C.; strain GC 4547): 1 µg/mL (≈ 0.704 µM)
MIC Staphylococcus aureus (ATCC 29213) (Staphylococcus sp.; [6]): 1 µg/mL (≈ 0.704 µM)
MIC Staphylococcus aureus (GC 1131) (Staphylococcus sp.; [7]): 1 µg/mL (≈ 0.704 µM)
MIC Staphylococcus aureus (GC 4535) (Staphylococcus sp.; strain GC 4535; broth dilution, 18 hours at 35° C.): 1 µg/mL (≈ 0.704 µM)
MIC Staphylococcus aureus-SMITH (GC 4536) (Staphylococcus sp.; strain GC 4536; broth dilution, 18 hours at 35° C.): 1 µg/mL (≈ 0.704 µM)
MIC Escherichia coli (GC 4559) (Escherichia coli [1]; strain GC 4559): 32 µg/mL (≈ 22.5 µM)
MIC Escherichia coli (GC 4560) (Escherichia coli [1]; strain GC 4560): 0.5 µg/mL (≈ 0.352 µM)
SMILES: CC(c1ccccc1)C1NC(=O)CNC(=O)C(CO)NC(=O)C(C(O)C2CNC(=N)N2C2OC(CO)C(O)C(O)C2O)NC(=O)C(C(O)C2CNC(=N)N2)NC(=O)C(Cc2ccc(OC3OC(CO)C(OC4OC(COC(=O)CCC5CCCC5)C(O)C(O)C4O)C(O)C3O)cc2)NC1=O (centres unmarked) [Example 100c]

MIC Escherichia coli (ATCC 25922) (Escherichia coli [2]): >128 µg/mL
MIC Escherichia coli (GC 4559) (Escherichia coli [2]): >128 µg/mL
MIC Escherichia coli (GC 4560) (Escherichia coli [2]): 2 µg/mL (≈ 1.06 µM)
MIC Enterococcus avium (GC 4558) (Enterococcus sp.; Enterococcus avium (GC 4558)): 2 µg/mL (≈ 1.06 µM)
MIC Enterococcus faecalis (ATCC 29212) (Enterococcus sp.; [3]): 8 µg/mL (≈ 4.26 µM)
MIC Enterococcus faecalis (GC 4552) (Enterococcus sp.; [4]): 32 µg/mL (≈ 17 µM)
MIC Enterococcus faecalis (GC 4553) (Enterococcus sp.; Enterococcus faecalis (GC 4553)): 4 µg/mL (≈ 2.13 µM)
MIC Enterococcus faecalis (GC 4554) (Enterococcus sp.; Enterococcus faecalis (GC 4554)): 16 µg/mL (≈ 8.52 µM)
MIC Enterococcus faecalis (GC 6189) (Enterococcus sp.; Enterococcus faecalis (GC 6189)): 8 µg/mL (≈ 4.26 µM)
MIC Enterococcus faecium (GC 2243) (Enterococcus sp.; Enterococcus faecium (GC 2243)): 8 µg/mL (≈ 4.26 µM)
MIC Enterococcus faecium (GC 4556) (Enterococcus sp.; Enterococcus faecium (GC 4556)): 32 µg/mL (≈ 17 µM)
MIC Enterococcus faecium (GC 4557) (Enterococcus sp.; Enterococcus faecium (GC 4557)): 4 µg/mL (≈ 2.13 µM)
MIC Enterococcus avium (GC 4558) (Enterococcus sp.): 2 µg/mL (≈ 1.06 µM)
MIC Enterococcus faecalis (ATCC 29212) (Enterococcus sp.): 8 µg/mL (≈ 4.26 µM)
MIC Enterococcus faecalis (GC 2242) (Enterococcus sp.): 16 µg/mL (≈ 8.52 µM)
MIC Enterococcus faecalis (GC 2691) (Enterococcus sp.): 8 µg/mL (≈ 4.26 µM)
MIC Enterococcus faecalis (GC 3059) (Enterococcus sp.): 32 µg/mL (≈ 17 µM)
MIC Enterococcus faecalis (GC 4552) (Enterococcus sp.): 32 µg/mL (≈ 17 µM)
MIC Enterococcus faecalis (GC 4553) (Enterococcus sp.): 4 µg/mL (≈ 2.13 µM)
MIC Enterococcus faecalis (GC 4554) (Enterococcus sp.): 16 µg/mL (≈ 8.52 µM)
MIC Enterococcus faecalis (GC 6189) (Enterococcus sp.): 8 µg/mL (≈ 4.26 µM)
MIC Enterococcus faecium (GC 2243) (Enterococcus sp.): 8 µg/mL (≈ 4.26 µM)
MIC Enterococcus faecium (GC 4556) (Enterococcus sp.): 32 µg/mL (≈ 17 µM)
MIC Enterococcus faecium (GC 4557) (Enterococcus sp.): 4 µg/mL (≈ 2.13 µM)
MIC Enterococcus faecalis (GC 2242) (Enterococcus sp.; strain GC 2242): 16 µg/mL (≈ 8.52 µM)
MIC Enterococcus faecalis (GC 2691) (Enterococcus sp.; strain GC 2691): 8 µg/mL (≈ 4.26 µM)
MIC Enterococcus faecalis (GC 3059) (Enterococcus sp.; strain GC 3059): 32 µg/mL (≈ 17 µM)
MIC Streptococcus agalactiae (GC 4564) (Streptococcus sp.): 4 µg/mL (≈ 2.13 µM)
MIC Streptococcus pneumoniae (ATCC 6301) (Streptococcus sp.): 4 µg/mL (≈ 2.13 µM)
MIC Streptococcus pneumoniae (GC 1894) (Streptococcus sp.): 8 µg/mL (≈ 4.26 µM)
MIC Streptococcus pneumoniae (GC 4565) (Streptococcus sp.): 8 µg/mL (≈ 4.26 µM)
MIC Streptococcus pyogenes (GC 4563) (Streptococcus sp.): 4 µg/mL (≈ 2.13 µM)
MIC Streptococcus pneumoniae (ATCC 6301) (Streptococcus sp.; strain ATCC 6301): 4 µg/mL (≈ 2.13 µM)
MIC Streptococcus pneumoniae (GC 1894) (Streptococcus sp.; strain GC 1894): 8 µg/mL (≈ 4.26 µM)
MIC Streptococcus pyogenes (GC 4563) (Streptococcus sp.; strain GC 4563): 4 µg/mL (≈ 2.13 µM)
MIC Streptococcus agalactiae (GC 4564) (Streptococcus sp.; strain GC 4564): 4 µg/mL (≈ 2.13 µM)
MIC Streptococcus pneumoniae (GC 4565) (Streptococcus sp.; strain GC 4565): 8 µg/mL (≈ 4.26 µM)
MIC Staphylococcus aureus (ATCC 29213) (Staphylococcus sp.; [6]): 4 µg/mL (≈ 2.13 µM)
MIC Staphylococcus aureus (GC 1131) (Staphylococcus sp.; [7]): 8 µg/mL (≈ 4.26 µM)
MIC Staphylococcus aureus (GC 3051) (Staphylococcus sp.; strain GC 3051; broth dilution, 18 hours at 35° C.): 4 µg/mL (≈ 2.13 µM)
MIC Staphylococcus aureus (GC 3053) (Staphylococcus sp.; strain GC 3053; broth dilution, 18 hours at 35° C.): 4 µg/mL (≈ 2.13 µM)
MIC Staphylococcus aureus (GC 4541) (Staphylococcus sp.; strain GC 4541; broth dilution, 18 hours at 35° C.): 4 µg/mL (≈ 2.13 µM)
MIC Staphylococcus aureus (GC 4542) (Staphylococcus sp.; strain GC 4542; broth dilution, 18 hours at 35° C.): 4 µg/mL (≈ 2.13 µM)
MIC Staphylococcus aureus-SMITH (GC 4543) (Staphylococcus sp.; strain GC 4543; broth dilution, 18 hours at 35° C.): 4 µg/mL (≈ 2.13 µM)
MIC Staphylococcus aureus (GC 4544) (Staphylococcus sp.; strain GC 4544; broth dilution, 18 hours at 35° C.): 8 µg/mL (≈ 4.26 µM)
MIC Staphylococcus aureus (GC 4545) (Staphylococcus sp.; strain GC 4545; broth dilution, 18 hours at 35° C.): 4 µg/mL (≈ 2.13 µM)
MIC Coagulase Negative Staphylococcus (GC 4547) (Staphylococcus sp.; strain GC 4547; broth dilution, 18 hours at 35° C.): 4 µg/mL (≈ 2.13 µM)
MIC Coagulase Negative Staphylococcus (GC 4548) (Staphylococcus sp.; strain GC 4548; broth dilution, 18 hours at 35° C.): 4 µg/mL (≈ 2.13 µM)
MIC Coagulase Negative Staphylococcus (GC 4549) (Staphylococcus sp.; strain GC 4549; broth dilution, 18 hours at 35° C.): 2 µg/mL (≈ 1.06 µM)
MIC Coagulase Negative Staphylococcus (GC 4551) (Staphylococcus sp.; strain GC 4551; broth dilution, 18 hours at 35° C.): 4 µg/mL (≈ 2.13 µM)
MIC Coagulase Negative Staphylococcus (GC 6257) (Staphylococcus sp.; strain GC 6257; broth dilution, 18 hours at 35° C.): 4 µg/mL (≈ 2.13 µM)
SMILES: CC(c1ccccc1)C1NC(=O)CNC(=O)C(CO)NC(=O)C(C(O)C2CN(Cc3ccccc3)C(=NCc3ccccc3)N2C2OC(CO)C(O)C(O)C2O)NC(=O)C(C(O)C2CN(Cc3ccccc3)C(=NCc3ccccc3)N2Cc2ccccc2)NC(=O)C(Cc2ccc(OC3OC(CO)C(OC4OC5COC6(OC5C(O)C4O)C4CC5CC(C4)CC6C5)C(O)C3O)cc2)NC1=O (stereo not drawn) [Example 79, Cyclo[glycyl-β-methylphenylalanyl-O-[4-O-[4,6-O-(2-adamantylidene)hexotpyranosyl]hexopyranosyl]tyrosyl-3-[1,3-dibenzyl-2-(benzylimino)imidazolidin-4-yl]seryl-3-[1-benzyl-2-(benzylimino)-3-hexopyranosylimidazolidin-4-yl]serylseryl]]
MIC Staphylococcus haemolyticus (GC 4546) (Staphylococcus sp.; strain GC 4546; broth dilution, 18 hours at 35° C.): 4 µg/mL (≈ 2.13 µM)
